Measurements from patent US12708655B2, “Botanicals as WNT/beta-catenin activators, molecular pathway regulators, tissue regenerators and health biomarker regulators” (Arbor Life Holdings, Ltd., priority 2020, dated 2026).
Where “and” joins values, the source holds several entries; their conditions need not be identical. Equal entries are not always repeated.

How the values were obtained:
[1] = test system: androgenetic alopecia and telogen effluvium in Men; experiment: Comparative analysis of clinical trial results in men versus standard of care, adjusted to 24 weeks; format: in vivo, human
[2] = test system: androgentic alopecia and telogen effluvium in Women; experiment: Comparative analysis of clinical trial results in women versus standard of care, adjusted to 24 weeks; format: in vivo, human
[3] = test system: procaspase-8, caspase-3, procaspase-9, Bax, p53, Bcl-2, Bcl-XL; conditions: mouse model of hair loss; cited from earlier work
[4] = test system: human dermal papilla stem cells (HDPSCs); experiment: MTT assay of HDPSC growth/proliferation in culture; format: cell-based; conditions: for MTT signal (absorbance at 570 nm), mean relative to Control 1.00: n = 6; for Change vs Control (stem cells, MTT): Table 5e; for Change in Stem Cells (MTT signal, mean relative to Control 1.00): n = 29-30
Experimental: Passage 3 human dermal papilla stem cells (HDPSCs) from a person were purchased from Sigma-Aldrich (Burlington, ON, Canada) and all work was performed under Brock University Research Ethics Board approval (File 15-138). The cells were grown on collagen-coated plates in a 50:50 mixture of Dulbecco's modified Eagles medium (DMEM):Ham's F12 media (Sigma) supplemented with 10% fetal bovine serum (FBS), 1% Gluta-Max™, 0.1% penicillin/streptomycin, 20 ng/mL human fibroblast growth factor, and 10 ng/mL human epidermal growth factor (complete medium). Cell cultures were maintained in incubators set to 5% CO2, 37° C. and 100% humidity. Experiments were performed under conditions of unregulated O2 (18-19%), except where indicated. Cells initially underwent 5-7 passages and were then stored frozen in vials of one million cells each in the above medium supplemented with 10% dimethylsulfoxide (DMSO) and stored in liquid nitrogen. For each experiment, a single vial was thawed, grown overnight, and used to seed 96-well plates.
Botanical extracts and Biotin were screened for their ability to stimulate HDPSC growth in culture using a 96-well plate format with MTT assay as an endpoint. Cells were treated for 72 h with various concentrations and combinations (as indicated, range; 1×10^−1-1×10^−5) of extracts (Table 5a). All the ingredients were able to stimulate growth or cell proliferation above control to varying rates and by varied concentrations.
Cell proliferation was assessed by MTT [3-(4,5-dimethylthiazol-2-yl)-2,5-diphenyltetrazolium bromide] assay according to the manufacturer's recommendations. HDPSCs were seeded onto collagen-coated 96-well plates at~2000 cells/well and grown in complete medium overnight. The next day, indicated concentrations of botanical extracts were added to individual wells.
For all constituents, lyophilized extracts (botanicals) or oil (Biotin) were initially dissolved in PBS at the following concentrations: Biotin 0.25 mg/mL; grapeseesd 7.5 mg/mL; skullcap 1.7 mg/mL; eclipta 3.0 mg/mL. These solutions were sterilized by passing through a 0.45 μm syringe filter. The following dilutions of these solutions, referred to as “Stock Solutions”, were then used for experimental treatments in cell culture media: Biotin (1:100); grapeseed (1:1000); skullcap (1:1000); eclipta (1:100). DMEM media and extracts were refreshed each day. The following day, the MT assay was performed to evaluate cell growth. For this, all media/extract was removed from wells and replaced with phenol-red free DMEM. The cells were incubated for 2 h at 37° C. in a tissue culture incubator. Solubilization solution was then applied to lyse cells and the mixture was triturated repeatedly. The solubilized solutions from each well were then transferred to a fresh 96-well plate and absorbance read at 570 nm. Experiments were tested for 3 different concentration models and one was repeated three times at 5% oxygen and three times at 18% oxygen.
Botanical extracts of grapeseed, skullcap and eclipta and Biotin were screened for their ability to stimulate HDPSC growth in culture using a 96-well plate format with MT assay as an endpoint. Cells were treated for 72 h with various concentrations and combinations with further stock dilutions in the range; 10^−1-10^−5 of the extracts. […] (See Tables 5a, b, c, d, e, f, and g).

[5] = test system: Wnt/beta-Catenin signaling; experiment: TopFlash/FopFlash luciferase assay of Wnt/beta-Catenin signaling in transfected HDPSCs; format: cell-based, human
Experimental: The cells were then seeded onto a collagen coated 96-well plate (white opaque with clear bottom, Greiner Bio-one 655098) using 2500 cells per well on average with 200 μL supplemented D-MEM. […] In a 1.5 or 2 mL centrifuge tube, 60 μL FuGene® 6 was added to 500 μL DMEM (with no supplements or antibiotics) medium and mixed gently, then incubated for 5 min. 1) and 2) were combined and mixed gently, then incubated for 20 min at room temperature with occasional gentle mixing by hand. Old medium was removed from all wells and replaced with 100 μL fresh supplemented D-MEM. […] was then added to each well and mixed gently by pipette. Medium was changed after 4-6 h with 100 μL fresh supplemented DMEM. […] The treatments were performed three times once a day for a total of three days of treatment. Medium was removed from each well and wells were washed with 50 μL room temperature PBS so that no colour could be seen leftover. 20 μL lysis solution was added to each well and hand shaken every few minutes for a total of 15 mins. The fluorescence spectrophotometer (Varian Cary Eclipse model) was set to: • Data mode: Bio/Chemi-luminescence • Emission wavelength: 560.00 nm • Stop time: 0.8 mins • PMT Detector Voltage: […] 3 of the duplicates of the wells from 3) were used to count the cells in each well and estimate a count for each type of extract. Stimulation of stem cell growth and proliferation can be achieved by activation of the Wnt/beta-Catenin signaling pathway. Having confirmed proliferation of […] by exposure to grapeseed, skullcap, eclipta and Biotin and combinations thereof, a series of studies were conducted to detect and measure the upregulation of the Wnt/beta-Catenin protein as the activation mechanism of the HDPSC proliferation. The method selected for the Wnt/beta-Catenin protein studies was transfection with Topflash and Fopflash plasmids followed by measuring luciferase activity by bioluminescence assays. Topflash and Fopflash plasmids were obtained as bacterial stab cultures from Add gene. Plasmid DNA was purified using the Norgen Biotek kit (info). […] Old medium was removed and replaced with 100 μL fresh complete medium. 20 μL of DNA/FuGENETM 6 mixture was added and mixed gently by pipette. After 4-6 h, medium was removed and replaced with 100 μL fresh complete medium. Botanical extracts were then added to each well. Treatments lasted 72 h with media/extracts refreshed every 24 h. Activation of Wnt/beta-Catenin signaling was assayed as luciferase activity using standard bioluminescence assays. Media from each well was removed and cells were washed twice with 50 μL PBS. 20 μL of cell lysis solution was then added to each well and the plate was incubated at room temperature for 15 min. Luminescence at 560±10 nm was measured using a Varian Cary Eclipse fluorescence spectrophotometer. […] Following transfection, cells were treated for three days as for the MTT assay and then assayed for luciferase activity using standard assays. […] To evaluate whether the extract combinations with Biotin identified in FIG. 1 activate Wnt/beta-Catenin signaling, […] were transfected with Topflash plasmid, which contains the luciferase cDNA and several tandem repeats of the Wnt/beta-Catenin response element.^230 Following transfection, cells were treated for three days as for the MTT assay and then assayed for luciferase activity using standard assays.

male pattern baldness = conditions: human, in vivo; cited from earlier work

In the case of `Nc1cc(N2CCCCC2)nc(N)[n+]1[O-]` [2% minoxidil, minoxidil], the “Efficacy Factor Multiple vs 2% Minoxidil” value [1] is reported as 1.0 and the “Efficacy Factor Multiple vs 2% Minoxidil” value [2] is reported as 1.0.
With `Nc1cc(N2CCCCC2)nc(N)[n+]1[O-]` [5% minoxidil, minoxidil] the “Efficacy Factor Multiple vs 2% Minoxidil” value [1] was 1.9 and the “Efficacy Factor Multiple vs 2% Minoxidil” value [2] was 1.0.
For `CC(C)(O)[C@@H]1CC[C@](C)([C@H]2[C@@H](O)C[C@@]3(C)[C@@H]4C[C@H](O[C@@H]5O[C@H](CO)[C@@H](O)[C@H](O)[C@H]5O)[C@H]5C(C)(C)[C@@H](O[C@@H]6OC[C@@H](O)[C@H](O)[C@H]6O)CC[C@@]56C[C@@]46CC[C@]23C)O1` [Astragaloside IV], the “effect on Bax, p53, Bcl-2 and Bcl-XL” value [3] is listed as “down-regulation of Bax and p53 (pro-apoptotic molecules), and up-regulation of the anti-apoptotic Bcl-2 and Bcl-XL molecules” and the “effect on procaspase-8, caspase-3 and procaspase-9” value [3] is listed as “blocked the procaspase-8, resulting in the inhibition of the pro-apoptosis enzymes caspase-3 and procaspase-9 activities”.
For `O=C(O)CCCC[C@@H]1SC[C@@H]2NC(=O)N[C@@H]21` [Biotin], the “HDPSC growth in the MTT assay, result in words” value ([4]; 72 h, stock dilutions 10^−1-10^−5) was “statistically significant reduction in the cell population”, the “MTT signal (absorbance at 570 nm), mean relative to Control 1.00” value ([4]; Table 5b, dilution 1/10^3, 5% oxygen, 72 h) was 1.12 and the “MTT signal (absorbance at 570 nm), mean relative to Control 1.00” value ([4]; Table 5b, dilution 1/10^4, 5% oxygen, 72 h) was 0.95. The “MTT signal (absorbance at 570 nm), mean relative to Control 1.00” value ([4]; Table 5b, dilution 1/10^5, 5% oxygen, 72 h) was 0.69, the “MTT signal (absorbance at 570 nm), mean relative to Control 1.00” value ([4]; Table 5c, dilution 1/10^3, 5% oxygen, 72 h) was 0.76 and the “MTT signal (absorbance at 570 nm), mean relative to Control 1.00” value ([4]; Table 5c, dilution 1/10^4, 5% oxygen, 72 h) was 0.70. For the same compound, the “MTT signal (absorbance at 570 nm), mean relative to Control 1.00” value ([4]; Table 5c, dilution 1/10^5, 5% oxygen, 72 h) was 0.95, the “Change vs Control (stem cells, MTT)” value ([4]; dilution 1/10^3, 5% oxygen) was 52.0% and the “Change vs Control (stem cells, MTT)” value ([4]; dilution 1/10^5, 5% oxygen) was −21.0%. For the same compound, the “Change in Stem Cells (MTT signal, mean relative to Control 1.00)” value ([4]; Table 5d, dilution of stock 1/10^4, 5% oxygen, 72 h) was 1.09, the “Change in Stem Cells (MTT signal, mean relative to Control 1.00)” value ([4]; Tables 5f/5g, dilution of stock 1/10^3, 18% oxygen, 72 h) was 0.99 and the “Change in Stem Cells (MTT signal, mean relative to Control 1.00)” value ([4]; Tables 5f/5g, dilution of stock 1/10^4, 18% oxygen, 72 h) was 1.21. The “Change in Stem Cells (MTT signal, mean relative to Control 1.00)” value ([4]; Tables 5f/5g, dilution of stock 1/10^5, 18% oxygen, 72 h) was 0.98, the “Change in Stem Cells (MTT signal, mean relative to Control 1.00)” value ([4]; Tables 5d/5e, dilution of stock 1/10^3, 5% oxygen, 72 h) was 1.52 and the “Change in Stem Cells (MTT signal, mean relative to Control 1.00)” value ([4]; Tables 5d/5e, dilution of stock 1/10^5, 5% oxygen, 72 h) was 0.79. For the same compound, the “HDPSC population reduced by” value ([4]; stock dilution 10^−5) was 21%, the “HDPSC Proliferation (MTT, means % relative to Control = 100%)” value ([4]; stock dilution 10^−5, 5% oxygen, 72 h) was 79% and the “relative effect on Wnt/beta-Catenin Signaling (Control=100)” value ([5]; No Biotin, 18% oxygen, 72 h) was 97. The “luciferase activity in TopFlash transfected HDPSCs, individual replicate measurements (single treatments)” value ([5]; Table 9b, replicates 1-28, 18% oxygen, 72 h) was 21.57 arbitrary luminescence values and 17.5 arbitrary luminescence values and 14.29 arbitrary luminescence values and 19.58 arbitrary luminescence values (2×) and 23.45 arbitrary luminescence values and 26.25 arbitrary luminescence values and 19.99 arbitrary luminescence values and 20.75 arbitrary luminescence values (2×) and 12.46 arbitrary luminescence values and 7.884 arbitrary luminescence values and 11.65 arbitrary luminescence values and 12.51 arbitrary luminescence values (2×) and 16.28 arbitrary luminescence values and 20.14 arbitrary luminescence values and 20.65 arbitrary luminescence values and 10.28 arbitrary luminescence values and 7.63 arbitrary luminescence values and 10.94 arbitrary luminescence values and 15.57 arbitrary luminescence values and 18.62 arbitrary luminescence values and 20.5 arbitrary luminescence values and 14.24 arbitrary luminescence values and 15.72 arbitrary luminescence values and 22.03 arbitrary luminescence values and 23.3 arbitrary luminescence values, the “luciferase activity in TopFlash transfected HDPSCs, individual replicate measurements (combination experiment with Biotin)” value ([5]; Table 9d, replicates 1-21, 18% oxygen, 72 h) was 79.5782 arbitrary luminescence values and 105.8972 arbitrary luminescence values and 78.0728 arbitrary luminescence values and 83.6682 arbitrary luminescence values and 87.4832 arbitrary luminescence values and 90.9168 arbitrary luminescence values and 94.2910 arbitrary luminescence values and 100.5561 arbitrary luminescence values and 22.6868 arbitrary luminescence values and 41.6603 arbitrary luminescence values and 37.0416 arbitrary luminescence values and 33.2163 arbitrary luminescence values and 44.2139 arbitrary luminescence values and 48.4257 arbitrary luminescence values and 95.4836 arbitrary luminescence values and 110.3368 arbitrary luminescence values and 109.6925 arbitrary luminescence values and 129.5662 arbitrary luminescence values and 112.3295 arbitrary luminescence values and the “luciferase activity in TopFlash transfected HDPSCs, mean (single treatments)” value ([5]; Tables 9a/9b, 18% oxygen, 72 h, 560 ± 10 nm, 27-28 replicates) was 17.0 ± 0.9 arbitrary luminescence values and 17.02 arbitrary luminescence values. For the same compound, the “luciferase activity in TopFlash transfected HDPSCs, mean (combination experiment with Biotin)” value ([5]; Tables 9c/9d, 18% oxygen, 72 h, 18-20 replicates) was 79.2 ± 7.3 arbitrary luminescence values and 79.2167 arbitrary luminescence values, the “relative effect on Wnt/beta-Catenin Signaling (Control=100)” value ([5]; With Biotin, 18% oxygen, 72 h) was 99 and the “% Change vs Control / Wnt/β-catenin Signal Upregulation of Combinations vs Control” value ([5]; combination with Biotin (or Biotin alone), dilution 10^−3, 18% oxygen) was −1.0%. For the same compound, the “effect of Biotin on Wnt/beta-Catenin signaling upregulated by botanical extracts” value ([5]; tested in combination with botanical extracts) was “attenuating or inhibiting effect”.
In the case of procyanidin, the adverse side effects (male pattern baldness) is listed as “without any adverse side effects”.
